Test results from US7304073B2, “Method of treating myocardial ischemia-reperfusion injury using NF-kB inhibitors” (Wyeth, priority 2004, dated 2007).
“Also recorded” adds a separate entry of the source.

Tests used:
[1] = tested on: Adult ovariectomized female Sprague Dawley rats; assay: In vivo rat heart ischemia-reperfusion (left coronary artery occlusion), infarct size
Method: A rat in vivo model was used to evaluate effects of experimental compounds on ischemia-reperfusion in the left ventricle. Adult ovariectomized female Sprague Dawley rats (>6 weeks) were used. All experimental procedures were performed under general anesthesia with a combination of ketamine and xylazine. Rats were placed on a heating pad and ventilated using a rodent ventilator. The chest was clipped free of hair, disinfected with Betadine and rinsed with alcohol. A small incision was made through skin and underlying muscles between 4th and 5th ribs in the left chest. The ribs were gently spread and the heart was exposed. A surgical suture was placed under the left coronary artery. The artery was occluded by tightening the suture for 30 minutes to induce myocardial ischemia and then re-opened for the 2 hour reperfusion period. […] At the end of reperfusion, hearts were harvested, perfused with Evans Blue, sectioned and stained with 2,3,5-triphenyltetrazolium chloride. Each section was digitally imaged. Infarct size and area at risk were measured and statistically analyzed.

[2] = tested on: perfused isolated male rat hearts; assay: Isolated rat heart ischemia-reperfusion (Langendorff perfusion)
Method: Male rats 3 months old were anesthetized with sodium-pentobarbital and hearts were removed and mounted on a Langendorff apparatus. In this paradigm isolated hearts were perfused through an aortic cannula with a modified Krebs-Henseleit buffer equilibrated with 95% O2 and 5% CO2 at a constant pressure of 58 mmHg. Hearts were maintained at 37° C. throughout the experiments and temperature was continuously monitored with an IT-18 thermocouple microprobe inserted into the left ventricle (PhysiTemp, Clifton, N.J.). Flow rate was monitored with a flow probe and small animal flow meter (T206) from Transonic Systems Incorporated, Ithaca, N.Y. Hearts were perfused for 5 minutes with no additions followed by perfusion with vehicle or test compound which were continuously perfused throughout the remaining steps of the experiments. After 20 minutes the hearts were exposed to 100 nM isoproterenol for 5 minutes followed by 15 minutes global ischemia which was achieved by turning off the perfusion pump. After ischemia, hearts were reperfused at a constant flow rate for 50 minutes. This flow rate was equivalent to the rate used before ischemia to maintain 58 mmHg.
To assess ischemic damage, the change in left ventricular diastolic pressure was continually monitored using a fluid filled latex balloon inserted into the left ventricle through the left atrium. The diastolic pressure was initially adjusted to 5 mmHg. The pressure signals were recorded with a Grass Polygraph.
The release of creatine kinase (CK) enzyme activity from the hearts was also measured as a marker of cardiac damage. Fractions of perfusate were collected before ischemia and every 5 minutes during reperfusion. CK enzyme activity released from the hearts was determined in the perfusate fractions using CK reagent as recommended by the supplier (Sigma Diagnostics, St. Louis, Mo.).

[3] = tested on: Ovariectomized female New Zealand White rabbits; assay: In vivo rabbit heart ischemia-reperfusion (left anterior descending coronary artery occlusion), infarct size
Method: Ovariectomized female New Zealand White rabbits were anesthetized with a mixture of xylazine (3 mg/kg) and ketamine (35 mg/kg) administered IM, followed by an IV injection of sodium pentobarbital (15 mg/kg). An endotracheal tube was inserted and animals were positive pressure ventilated with room air. A Millar catheter micro-tip pressure transducer was inserted through the left carotid artery and positioned above the aortic valves to monitor aortic blood pressure. A lead II electrocardiogram was monitored throughout the experiment. A left thoracotomy and pericardiotomy were performed. […] A silk suture was passed behind the left anterior descending coronary artery and secured against polyethylene tubing for 30 minutes (ischemic period). Regional myocardial ischemia was verified by cyanosis in the region of the occluded vessel and by ST-segment elevation like changes in the electrocardiogram. The hearts were then reperfused for 4 hours.
To determine infarct size the heart was removed, cannulated through the aorta and perfused with Krebs-Henseleit buffer followed by perfilsion with 1% triphenyltetrazolium chloride (TTC). The left anterior descending coronary artery was re-occluded with a suture and 0.25% Evans Blue was perfused through the heart. The heart was cut into transverse sections and the area of the left ventricle, area at risk and the infarct area were traced and analyzed using Adobe PhotoShop Software. The infarct size is expressed as a percentage of the area at risk.

[4] = tested on: uterus or breast; assay: Activity in the uterus or breast; conditions: in contrast to the known effects of 17β-estradiol
[5] = tested on: myocardial ischemia-reperfusion models; conditions: cited from earlier work
[6] = 1 uM, isolated rat heart, following ischemia-reperfusion

Compound	infarct size ([1]; 1 mg/kg iv 5 minutes before reperfusion, 30 minutes ischemia, 2 hour reperfusion, Mean±SEM, vehicle 54.6±3.2% / 54.4±4.7%)	effect on ischemia/reperfusion-induced myocardial infarction compared with vehicle ([1]; 1 mg/kg iv, ovariectomized female rats)	melting point	effect on increase in left ventricular diastolic pressure in comparison to vehicle [2, 6]	effect on left ventricular developed pressure in comparison to vehicle [2, 6]	release of creatine kinase (CK) activity from hearts following ischemia ([2]; 1 uM, perfusate during reperfusion phase, versus vehicle)	increase in left ventricular diastolic pressure after ischemia-reperfusion ([2]; luM of compound, 15 minutes global ischemia, 50 minutes reperfusion, vehicle 29 mmHg)	size of the area at risk relative to the area of the left ventricle ([3]; 1 mg/kg IV 30 minutes before induction of ischemia)	effect on infarct size in comparison to vehicle ([3]; 1 mg/kg IV 30 minutes before induction of ischemia, rabbit)	infarct size (ischemic area relative to the area at risk) ([3]; 1 mg/kg IV 30 minutes before ischemia, 30 minutes ischemia, 4 hours reperfusion, vehicle 59%)	activity in the uterus or breast [4]	protection in similar myocardial ischemia-reperfusion models [5]
CC1c2cc(F)ccc2-c2ccccc2N1S(=O)(=O)c1ccc(O)cc1 (stereo not shown) [Example 3, 4-[(8-Fluoro-6-methylphenanthridin-5(6H)-yl)sulfonyl]phenol]	32.6±5.2%	significantly less myocardial infarction; also recorded: cardioprotective activity	188 °C	significantly attenuated; also recorded: cardioprotective activity	significantly attenuated; also recorded: cardioprotective activity	significantly reduced; also recorded: significant decreases; also recorded: cardioprotective activity	11 mmHg	did not have an effect	significantly reduced infarct size; also recorded: cardioprotective activity	39%	no activity	
C[C@]12CC[C@@H]3c4ccc(O)cc4CC[C@H]3[C@@H]1CC[C@@H]2O [17β-estradiol]												protective
COc1cc(OC)cc(N2CCN(C(=O)[C@](C)(C#N)[C@H](c3ccccc3OC)c3cccc4ccccc34)CC2)c1 [Example 4, (S)-3-[4-(3,5-dimethoxyphenyl)piperazin-1-yl]-2-[(S)-(2-methoxyphenyl)(1-naphthyl)methyl]-2-methyl-3-oxopropanenitrile]			186 to 188 °C									
